Laboratory results taken from patent US5688938A, “Calcium receptor-active molecules” (priority 1995, dated 1997).

Assays:
[1] = system: parathyroid cell calcium receptor; assay: Cl^- current in Xenopus oocytes injected with (bovine) parathyroid cell mRNA; assay type: cell-based; conditions: fendiline 100 μM
Procedure: (§1) Following incubation, an oocyte was placed into a 100-μl plastic chamber and superfused with MBS at a flow rate of 0.5 ml/min using a peristaltic pump. Test molecules or inorganic polycations were added by rapidly moving the tubing into different buffers. Recording and current passing electrodes were constructed from thin-wall capillary tubing pulled to a resistance of 1-3 Mohms and filled with 3M KCl. […] Currents were recorded directly onto a strip chart recorder.

calcium receptor = target: T1, calcium receptor (Homo sapiens, UniProt P41180); assay: Xenopus oocytes injected with human parathyroid mRNA; assay type: cell-based
T1 construct: Xenopus oocytes injected with poly(A)+ mRNA from human hyperplastic parathyroid tissue
T1 sequence (P41180 20-1078): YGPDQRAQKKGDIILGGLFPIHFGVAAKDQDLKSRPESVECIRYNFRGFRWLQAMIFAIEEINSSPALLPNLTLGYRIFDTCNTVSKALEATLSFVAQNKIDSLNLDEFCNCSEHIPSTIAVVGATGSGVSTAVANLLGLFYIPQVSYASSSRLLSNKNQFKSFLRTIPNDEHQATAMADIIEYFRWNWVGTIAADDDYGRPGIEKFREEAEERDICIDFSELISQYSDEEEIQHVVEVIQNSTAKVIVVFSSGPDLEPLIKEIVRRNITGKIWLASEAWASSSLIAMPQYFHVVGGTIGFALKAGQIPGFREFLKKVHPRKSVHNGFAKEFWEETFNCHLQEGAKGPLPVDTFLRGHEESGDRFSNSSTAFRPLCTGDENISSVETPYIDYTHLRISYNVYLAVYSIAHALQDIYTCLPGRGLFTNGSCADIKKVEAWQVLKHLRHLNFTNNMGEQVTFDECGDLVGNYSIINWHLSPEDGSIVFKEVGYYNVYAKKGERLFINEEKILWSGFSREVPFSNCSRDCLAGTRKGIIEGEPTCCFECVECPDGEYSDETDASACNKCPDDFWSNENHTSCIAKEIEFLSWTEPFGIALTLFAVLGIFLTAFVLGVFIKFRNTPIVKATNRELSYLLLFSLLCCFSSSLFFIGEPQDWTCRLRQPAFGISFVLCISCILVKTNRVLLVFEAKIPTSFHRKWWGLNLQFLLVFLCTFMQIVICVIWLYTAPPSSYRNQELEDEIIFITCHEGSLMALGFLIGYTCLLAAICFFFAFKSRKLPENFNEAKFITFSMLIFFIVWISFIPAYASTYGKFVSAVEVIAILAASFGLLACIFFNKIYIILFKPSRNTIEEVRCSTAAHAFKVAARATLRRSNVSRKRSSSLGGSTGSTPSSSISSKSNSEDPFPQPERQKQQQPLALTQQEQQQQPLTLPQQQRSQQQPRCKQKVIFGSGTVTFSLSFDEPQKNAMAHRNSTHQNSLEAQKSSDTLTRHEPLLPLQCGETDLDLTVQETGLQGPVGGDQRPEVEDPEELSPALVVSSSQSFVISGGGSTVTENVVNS
Procedure: Oocytes were injected with poly(A)+-enriched mRNA from human parathyroid tissue (hyperplastic glands from a case of secondary HPT).
as §1
Using this screen allows one to test for an action directly on the calcium receptor. Oocytes expressing the calcium receptor also responded to several molecules active on intact parathyroid cells when screened as follows. […] This offers rather compelling evidence showing that these molecules act on the calcium receptor or on some other protein intimately associated with its function.

net positive charge = assay type: physicochemical; conditions: Table 1; at physiological pH
[2] = target: T2, parathyroid cell calcium receptor (Bos taurus, UniProt P35384); assay: cell-based; assay type: cell-based
T2 sequence (P35384 21-1085 limits assumed): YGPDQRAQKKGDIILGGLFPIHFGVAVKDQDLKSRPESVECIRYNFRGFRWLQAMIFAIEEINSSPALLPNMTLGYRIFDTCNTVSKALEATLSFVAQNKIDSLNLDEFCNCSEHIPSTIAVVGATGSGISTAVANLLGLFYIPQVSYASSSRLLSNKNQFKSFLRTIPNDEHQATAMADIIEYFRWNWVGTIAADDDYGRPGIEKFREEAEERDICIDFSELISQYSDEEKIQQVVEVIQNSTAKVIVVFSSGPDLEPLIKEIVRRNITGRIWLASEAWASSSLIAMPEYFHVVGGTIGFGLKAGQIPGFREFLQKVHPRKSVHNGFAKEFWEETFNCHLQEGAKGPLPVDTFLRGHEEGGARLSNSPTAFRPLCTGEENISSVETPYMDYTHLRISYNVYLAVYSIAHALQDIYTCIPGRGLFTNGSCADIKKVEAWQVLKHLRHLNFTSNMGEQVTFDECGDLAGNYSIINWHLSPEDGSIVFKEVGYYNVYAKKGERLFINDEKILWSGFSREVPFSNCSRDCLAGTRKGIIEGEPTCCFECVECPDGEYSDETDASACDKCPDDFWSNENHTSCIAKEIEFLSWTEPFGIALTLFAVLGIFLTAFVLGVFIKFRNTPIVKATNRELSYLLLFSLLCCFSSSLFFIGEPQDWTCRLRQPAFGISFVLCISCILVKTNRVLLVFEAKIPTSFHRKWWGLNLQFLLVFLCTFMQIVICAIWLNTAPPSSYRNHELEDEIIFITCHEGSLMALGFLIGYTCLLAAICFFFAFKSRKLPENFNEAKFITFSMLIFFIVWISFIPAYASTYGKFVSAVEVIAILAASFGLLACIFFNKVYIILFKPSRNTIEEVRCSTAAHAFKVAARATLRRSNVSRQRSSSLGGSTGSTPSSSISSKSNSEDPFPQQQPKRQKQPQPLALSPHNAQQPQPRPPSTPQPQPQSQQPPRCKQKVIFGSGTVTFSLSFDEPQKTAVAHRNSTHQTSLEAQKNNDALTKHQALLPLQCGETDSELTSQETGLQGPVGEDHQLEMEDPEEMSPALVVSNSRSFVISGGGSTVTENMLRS
Procedure: For example,.bovine parathyroid cells loaded with fura-2 are initially suspended in buffer containing 0.5 mM CaCl2. A test substance is added to the cuvette in a small volume (5-15 μl) and changes in the fluorescence signal are measured. Cumulative increases in the concentration of the test substance are made in the cuvette until some predetermined concentration is achieved or no further changes in fluorescence are noted.
This section describes procedures used to obtain and treat parathyroid cells from calves and humans. […] Human parathyroid glands, were obtained from patients undergoing surgical removal of parathyroid tissue for primary or uremic hyperparathyroidism (uremic HPT), and were treated similarly to bovine tissue.
Glands were trimmed of excess fat and connective tissue and then minced with fine scissors into cubes approximately 2-3 mm on a side. Dissociated parathyroid cells were prepared by collagenase digestion and then purified by centrifugation in Percoll buffer. The resultant parathyroid cell preparation was essentially devoid of red blood cells, adipocytes, and capillary tissue as assessed by phase contrast microscopy and Sudan black B staining. Dissociated and purified parathyroid cells were present as small clusters containing 5 to 20 cells.
The cells were then transferred to plastic flasks (75 or 150 cm^2 ; Falcon) and incubated overnight at 37° C. in a humid atmosphere of 5% CO2. No serum is added to these overnight cultures, since its presence allows the cells to attach to the plastic, undergo proliferation, and dedifferentiate. Cells cultured under the above conditions were readily removed from the flasks by decanting, and show the same viability as freshly prepared cells.
The cells were then pelleted, resuspended in the same buffer, but lacking the ester, and incubated a further 15 minutes at 37° C. The cells were subsequently washed twice with PCB containing 0.5 mM CaCl2 and 0.5% BSA and maintained at room temperature (about 20° C.). Immediately before use, the cells were diluted five-fold with prewarmed 0.5mM CaCl2 -PCB to obtain a final BSA concentration of 0.1%. The concentration of cells in the cuvette used for fluorescence recording was 1-2×10^6 /ml.
The fluorescence of indicator-loaded cells was measured at 37° C. in a spectrofluorimeter (Biomedical Instrumentation Group, University of Pennsylvania, Philadelphia, Pa.) equipped with a thermostated cuvette holder and magnetic stirrer using excitation and emission wavelengths of 340 and 510 nm, respectively. […] Leakage of dye is dependent on temperature and most occurs within the first 2 minutes after warming the cells in the cuvette. Dye leakage increases only very slowly thereafter. To correct the calibration for dye leakage, cells were placed in the cuvette and stirred at 37° C. for 2-3 minutes. The cell suspension was then removed, the cells pelleted, and the supernatant returned to a clean cuvette. […] This estimate was subtracted from the apparent Fmin.
Dissociated bovine parathyroid cells were purified on gradients of Percoll and cultured overnight in serum-free medium. […] That is,

[3] = system: L-type voltage-sensitive Ca^2+ channel; assay: block of extracellular Ca^2+-induced increases in [Ca^2+]i in rMTC 6-23 cells; assay type: cell-based, rat; conditions: read-out: IC50 for block of extracellular Ca^2+-induced increases in [Ca^2+]i
rat osteoclasts = assay: inhibition of bone resorption (pit formation on bovine cortical bone slices); assay type: cell-based; conditions: Osteoclast, 24 hours, read-out: IC50 for inhibition of bone resorption in vitro
From the text: This was done by morphometric analysis of pit formation on thin slices of bovine cortical bone using scanning electron microscopy.

[4] = system: osteoclast calcium receptor; assay: [Ca^2+]i (indo-1) in rat osteoclasts; assay type: cell-based; conditions: with or without 1 mM extracellular CaCl2
bovine parathyroid cells [5] = assay type: cell-based
Procedure: This section describes measuring cyclic AMP levels. Cells were incubated as above for PTH secretion studies and at the end of the incubation, a 0.15-ml sample was taken and transferred to 0.85 ml of hot (70° C.) water and heated at this temperature for 5-10 minutes. The tubes were subsequently frozen and thawed several times and the cellular debris sedimented by centrifugation. Portions of the supernatant were acetylated and cyclic AMP concentrations determined by radioimmunoassay.
Bovine parathyroid cells were cultured for 16 hours with or without 100 ng/ml pertussis toxin. […] Each value is the mean±SEM of three experiments.

bovine parathyroid cells [6] = assay: inositol phosphate formation in bovine parathyroid cells; assay type: cell-based
Procedure: This section describes procedures measuring inositol phosphate formation. Membrane phospholipids were labeled by incubating parathyroid cells with 4 μCi/ml ^3 H-myo-inositol for 20-24 hours. Cells were then washed and resuspended in PCB containing 0.5 mM CaCl2 and 0.1% BSA. Incubations were performed in microfuge tubes in the absence or presence of various concentrations of organic polycation for different times. Reactions were terminated by the addition of 1 ml chloroform-methanol-12N HCl (200:100:1; v/v/v). Aqueous phytic acid hydrolysate (200 μl; 25 μg phosphate/tube). The tubes were centrifuged and 600 μl of the aqueous phase was diluted into 10 ml water.
Inositol phosphates were separated by ion-exchange chromatography using AG1-X8 in either the chloride- or formate-form. When only IP3 levels were to be determined, the chloride-form was used, whereas the formate form was used to resolve the major inositol phosphates (IP3, IP2, and IP1). For determination of just IP3, the diluted sample was applied to the chloride-form column and the column was washed with 10 ml 30 mM HCl followed by 6 ml 90 mM HCl and the IP3 was eluted with 3 ml 500 mM HCl. The last eluate was diluted and counted. […] The eluted samples from the formate columns were rotary evaporated, the residues brought up in cocktail, and counted.
The isomeric forms of IP3 were evaluated by HPLC. […]

bovine parathyroid cells [7] = assay: PTH secretion from bovine parathyroid cells; assay type: cell-based
Procedure: In most experiments, cells loaded with fura-2 were also used in studies of PTH secretion.
PTH secretion was measured by first suspending cells in PCB containing 0.5 mM CaCl2 and 0.1% BSA.

## CC(NCCC(c1ccccc1)c1ccccc1)c1ccccc1 (racemic) [Fendiline, reference compound]
[1]
  Cl^- current in oocytes: oscillatory increases

## C1CNCCNCCNCCNCCNCCN1 [Hexacyclen, 1,4,7,10,13,16-hexaaza-cyclooctadecane, reference compound]
Calcium receptor
  effective concentration for mobilization of intracellular Ca^2+ in oocytes: 135 µM
Net positive charge
  Net (+) Charge: +6
[2]; [Ca^2+]i
  potency relative to NPS 383: 7 -fold
  potency relative to pentaethylenehexamine: 25 -fold

## NCCCNCCCCNCCCNCCCN(O)CCCNC(=O)Cc1c[nH]c2cccc(O)c12 [NPS 015]
[3]
  IC50: 3 µM

## CC(Cc1ccccc1)NCCC(c1ccccc1)c1ccccc1 (stereo not shown) [Prenylamine]
Rat osteoclasts
  IC50: 10 µM
[4]
  mobilization of [Ca^2+]i in rat osteoclasts: mobilization of [Ca^2+ ]i

## protamine
Bovine parathyroid cells [5]
  cyclic AMP (+PTx): 89 ± 9 % of control
Bovine parathyroid cells [5]; 10 μM isoproterenol, 2.0 mM Ca^2+, or 0.5 mM Ca^2+ with 200 μM spermine, 30 μM neomycin B or 2 μg/ml protamine, mean±SEM of three experiments
  cyclic AMP (control, without pertussis toxin): 20 ± 4 % of control
Bovine parathyroid cells [6]
  formation of IP3: rapid (within 30 seconds) increase
[2]
  increases in [Ca^2+]i: rapid and transient increases in [Ca^2+ ]i
Bovine parathyroid cells [7]
  inhibition of PTH secretion: inhibited PTH secretion to the same extent as extracellular Ca^2+
